Patent US7696149B2, “Pharmaceutical administration form for peptides, process for its preparation, and use” (AEterna Zentaris GmbH, priority 2000, dated 2010)
Several values for one entry are separate records, joined by “and”; a condition that tells them apart may be missing. Identical values can stand only once. Entries after “also recorded” stand apart in the source; their conditions may differ. Non-standard residues stand in square brackets, D forms with d. Residues, ends and D or L forms follow the SMILES beside them. dPhe(4-Cl) = N[C@H](Cc1ccc(Cl)cc1)C(=O)O; d2Nal = N[C@H](Cc1ccc2ccccc2c1)C(=O)O; dCit = NC(=O)NCCC[C@@H](N)C(=O)O; d3Pal = N[C@H](Cc1cccnc1)C(=O)O

How the values were obtained:
[1] = Rat animal experiment: cetrorelix residual content in the muscle 168 h after injection; format: in vivo; conditions: for Cetrorelix content in the muscle (168 h), % of the dose: rat
Protocol: (§1) After reconstitution of these lyophilizates, the solutions (2.5 mg/ml of cetrorelix) are investgated in the following tests for aggregate formation and release behaviour: • Polarization microscopy (pol. mic.): days without aggregation. • Filterability in %: • Cetrorelix solutions are prepared according to a standardized procedure and filtered through 0.22 μm or 0.45 μm filters by means of centrifugation. The concentration of cetrorelix in the filtrate is determined by HPLC and indicated as a % value, based on the starting concentration before filtration (filterability in %). • in-vitro release form (RRS, release in Ringer's solution): • % released after 1 h and after 6 h. • The in-vitro release behaviour is determined at 37° C. in a flow procedure using Ringer's solution as medium. The concentration measurement is carried out by HPLC. Cetrorelix samples, corresponding to 10 mg of cetrorelix base, are weighed into the flow cell, mixed with 4 ml of water and stirred for 10 min.
(§2) In the further rat muscle experiments shown in Table 9, in addition to the residual content in the muscle, the cetrorelix content in the plasma was additionally determined.

[2] = Rat muscle experiment: cetrorelix content in the plasma; format: in vivo
Excerpt: as §2

[3] = Polarization microscopy: aggregation of cetrorelix solutions (days without aggregation); format: physicochemical
Protocol: By means of polarization microscopy, aggregation investigations were carried out on solutions of various cetrorelix salts without or with addition of excipients.
In the polarization light microscope with crossed polarizers, aggregated peptide solutions show images which are very similar to those of liquid-crystalline structures. In contrast to this, aggregate-free peptide solutions produce no such effects.
as §1, with “([…])” for “(2.5 mg/ml of cetrorelix)”

[4] = In-vitro release in Ringer's solution (RRS), flow procedure at 37° C.; format: physicochemical
Protocol: as §1, with “([…])” for “(2.5 mg/ml of cetrorelix)”

[5] = Optical appearance of cetrorelix acetate solutions with excipients; format: physicochemical
[6] = dose 1.5 mg/kg, inj. soln 3 mg/ml
[7] = Cremophor ® EL 5.00%, cetrorelix 2.5 mg/ml
[8] = Cremophor ® EL 10.00%, cetrorelix 2.5 mg/ml
[9] = Cremophor ® EL 20.00%, cetrorelix 2.5 mg/ml
[10] = Cremophor ® EL 20.00%, cetrorelix 5 mg/ml
[11] = Galacturonic acid 2.50%, cetrorelix 2.5 mg/ml, pH 2.6
[12] = Glucaric acid 2.50%, cetrorelix 2.5 mg/ml, pH 2.5
[13] = L-glutamic acid 0.80%, cetrorelix 2.5 mg/ml, pH 3.8
[14] = Solutol ® HS 15 5.00%, cetrorelix 2.5 mg/ml
[15] = Solutol ® HS 15 10.00%, cetrorelix 2.5 mg/ml
[16] = Solutol ® HS 15 20.00%, cetrorelix 2.5 mg/ml
[17] = cetrorelix 2.5 mg/ml, Kollidon 0%
[18] = cetrorelix 2.5 mg/ml, Kollidon 5%
[19] = cetrorelix 2.5 mg/ml, Kollidon 10%
[20] = cetrorelix 2.5 mg/ml, Kollidon 15%
[21] = cetrorelix 2.5 mg/ml, Kollidon 20%
[22] = cetrorelix 5 mg/ml, Kollidon 15%
[23] = cetrorelix 5 mg/ml, Kollidon 20%
[24] = conc. of cetrorelix from lyo 2.5 mg/ml
[25] = conc. of cetrorelix from lyo 5 mg/ml
[26] = dose 1.5 mg/kg, inj. soln 3 mg/ml, listed as Acetate
[27] = dose 3.0 mg/kg, inj. soln 15 mg/ml
[28] = conc. of cetrorelix from lyo 15 mg/ml

## CC(=O)N[C@H](Cc1ccc2ccccc2c1)C(=O)N[C@H](Cc1ccc(Cl)cc1)C(=O)N[C@H](Cc1cccnc1)C(=O)N[C@@H](CO)C(=O)N[C@@H](Cc1ccc(O)cc1)C(=O)N[C@H](CCCNC(N)=O)C(=O)N[C@@H](CC(C)C)C(=O)N[C@@H](CCCNC(=N)N)C(=O)N1CCC[C@H]1C(=O)N[C@H](C)C(N)=O [Base, cetrorelix] (Ac-[d2Nal][dPhe(4-Cl)][d3Pal]SY[dCit]LRP[dA]-NH2)
[1]; [6]
  Cetrorelix content in the muscle (168 h), % of the dose: 27.2 % of the dose
[2]; [6]
  Cetrorelix content in the plasma, % of the dose: 122.2 % of the dose

## CC(=O)N[C@H](Cc1ccc2ccccc2c1)C(=O)N[C@H](Cc1ccc(Cl)cc1)C(=O)N[C@H](Cc1cccnc1)C(=O)N[C@@H](CO)C(=O)N[C@@H](Cc1ccc(O)cc1)C(=O)N[C@H](CCCNC(N)=O)C(=O)N[C@@H](CC(C)C)C(=O)N[C@@H](CCCNC(=N)N)C(=O)N1CCC[C@H]1C(=O)N[C@H](C)C(N)=O [cetrorelix acetate] (Ac-[d2Nal][dPhe(4-Cl)][d3Pal]SY[dCit]LRP[dA]-NH2)
[3]; 2.5 mg/ml cetrorelix acetate, gluconic acid in reconstitution medium 0%, pH 4.7
  Days without aggregation: 1 days
[3]; 2.5 mg/ml cetrorelix acetate, gluconic acid in reconstitution medium 0.0071%, pH 4.5
  Days without aggregation: 2 days
[3]; 2.5 mg/ml cetrorelix acetate, gluconic acid in reconstitution medium 0.071%, pH 3.7
  Days without aggregation: 2 days
[3]; 2.5 mg/ml cetrorelix acetate, gluconic acid in reconstitution medium 0.71%, pH 3.1
  Days without aggregation: 12 days
[3]; [7]
  Aggregation (microscopy): yes, after ... days: 10 days
[3]; [8]
  Aggregation (microscopy): days without aggregation: ≧112 days
[3]; [9]
  Aggregation (microscopy): days without aggregation: ≧112 days
[3]; [10]
  Aggregation (microscopy): yes, after ... day: yes, after 1 day
[3]; [11]
  Aggregation (microscopy): days without aggregation: ≧12 days
[3]; [12]
  Aggregation (microscopy): days without aggregation: ≧12 days
[3]; [13]
  Aggregation (microscopy): yes, after ... days: yes, after 2 days
[3]; [14]
  Aggregation (microscopy): yes, after ... days: 14 days
[3]; [15]
  Aggregation (microscopy): days without aggregation: ≧112 days
[3]; [16]
  Aggregation (microscopy): days without aggregation: ≧112 days
[3]; acetate salt, cetrorelix 2.5 mg/ml, glucuronic acid addition: no, pH 4.7
  Days without aggregation: 0 days
[3]; acetate salt, cetrorelix 2.5 mg/ml, glucuronic acid addition: yes, pH 3.0
  Days without aggregation: >21 days
[3]; acetate salt, cetrorelix 5 mg/ml, glucuronic acid addition: yes, pH 3.0
  Days without aggregation: 0 days
[3]; [17]
  Days without aggregation with Kollidon ® 12 PF: 0 days
  Days without aggregation with Kollidon ® 17 PF: 0 days
[3]; [18]
  Days without aggregation with Kollidon ® 12 PF: 1 days
  Days without aggregation with Kollidon ® 17 PF: 2 days
[3]; [19]
  Days without aggregation with Kollidon ® 12 PF: 1 days
  Days without aggregation with Kollidon ® 17 PF: 2 days
[3]; [20]
  Days without aggregation with Kollidon ® 12 PF: 77 days
  Days without aggregation with Kollidon ® 17 PF: 63 days
[3]; [21]
  Days without aggregation with Kollidon ® 12 PF: 84 days
  Days without aggregation with Kollidon ® 17 PF: 98 days
[3]; [22]
  Days without aggregation with Kollidon ® 12 PF: 0 days
  Days without aggregation with Kollidon ® 17 PF: 1 days
[3]; [23]
  Days without aggregation with Kollidon ® 12 PF: 0 days
  Days without aggregation with Kollidon ® 17 PF: 1 days
[3]; cetrorelix acetate 2.5 mg/ml, 10% of α-cyclodextrin
  Aggregation-free duration: 7 days
[3]; cetrorelix acetate 2.5 mg/ml, 20% of hydroxypropyl-β-cyclodextrin
  Aggregation-free duration: 24 days
[3]; cetrorelix acetate 5 mg/ml, 10% of α-cyclodextrin
  Aggregation-free duration: 0 days
[3]; cetrorelix acetate 5 mg/ml, 20% of hydroxypropyl-β-cyclodextrin
  Aggregation-free duration: 7 days
[3]; cetrorelix acetate 7.5 mg/ml, 10% of α-cyclodextrin
  Aggregation-free duration: 0 days
[3]; cetrorelix acetate 7.5 mg/ml, 20% of hydroxypropyl-β-cyclodextrin
  Aggregation-free duration: 10 days
[3]; cetrorelix acetate 10 mg/ml, 10% of α-cyclodextrin
  Aggregation-free duration: 0 days
[3]; cetrorelix acetate 10 mg/ml, 20% of hydroxypropyl-β-cyclodextrin
  Aggregation-free duration: 2 days
[3]; cetrorelix acetate 15 mg/ml, 20% of hydroxypropyl-β-cyclodextrin
  Aggregation-free duration: 0 days
[3]; cetrorelix acetate 15 mg/ml, 20% of γ-cyclodextrin
  Aggregation-free duration: 0 days
[3]; [24]
  Pol. mic days without aggr.: 0 days
[3]; [25]
  Pol. mic days without aggr.: 0 days
[4]; [24]
  RRS, [%] after 1 h: 12% and 13%
  RRS, [%] after 6 h: 24.5% and 35.9%
[4]; [25]
  RRS, [%] after 1 h: 10%
  RRS, [%] after 6 h: 35%
[1]; [26]
  Cetrorelix content in the muscle (168 h), % of the dose: 55.1 % of the dose
[1]; [27]
  Cetrorelix content in the muscle (168 h), % of the dose: 56.5 % of the dose
[1]; residual content in the muscle, % of dose, conc. of cetrorelix 2.5 mg/ml
  Rat % i.m. after 168 h: ~55%
[2]; [26]
  Cetrorelix content in the plasma, % of the dose: 92.2 % of the dose
[2]; [27]
  Cetrorelix content in the plasma, % of the dose: 28.7 % of the dose
[5]; [7]
  Appearance: clear
[5]; [8]
  Appearance: clear
[5]; [9]
  Appearance: clear
[5]; [10]
  Appearance: clear,; also recorded: viscose
[5]; [11]
  Appearance: clear
[5]; [12]
  Appearance: clear
[5]; [13]
  Appearance: clear
[5]; [14]
  Appearance: clear
[5]; [15]
  Appearance: clear
[5]; [16]
  Appearance: clear

## Citrate
[4]; [28]
  RRS, [%] after 1 h: 9%
  RRS, [%] after 6 h: 20.3%

## Lactate
[4]; bulk
  RRS, [%] after 1 h: 20%
  RRS, [%] after 6 h: 55.2%

## Phosphate
[1]; in vivo, 1.5 mg/kg
  Cetrorelix content in the muscle (168 h), % of the dose: 32.9 % of the dose
[2]; in vivo, 1.5 mg/kg
  Cetrorelix content in the plasma, % of the dose: 22.6 % of the dose

## cetrorelix gluconate
[3]; 2.5 mg/ml cetrorelix gluconate, hydroxypropyl-β-cyclodextrin 20%
  Days without aggregation: 189 days
[3]; 2.5 mg/ml cetrorelix gluconate, hydroxypropyl-β-cyclodextrin […]
  Days without aggregation: 91 days
[3]; 2.5 mg/ml cetrorelix gluconate, α-cyclodextrin 5%
  Days without aggregation: 1 days
[3]; 2.5 mg/ml cetrorelix gluconate, α-cyclodextrin 10%
  Days without aggregation: 140 days
[3]; 2.5 mg/ml cetrorelix gluconate, γ-cyclodextrin 20%
  Days without aggregation: 182 days
[3]; 2.5 mg/ml cetrorelix gluconate, γ-cyclodextrin […]
  Days without aggregation: 126 days
[3]; cetrorelix 2.5 mg/ml, gluconic acid addition: yes, pH 3.0
  Days without aggregation: >30 days
[3]; cetrorelix 5 mg/ml, gluconic acid addition: no, pH 4.7
  Days without aggregation: 1 days
[3]; cetrorelix 5 mg/ml, gluconic acid addition: no, pH 4.8
  Days without aggregation: 1 days
[3]; cetrorelix 5 mg/ml, gluconic acid addition: yes, pH 3.6
  Days without aggregation: 4 days
[3]; cetrorelix 5 mg/ml, gluconic acid addition: yes, pH 3.8
  Days without aggregation: 4 days
[3]; cetrorelix 7.5 mg/ml, gluconic acid addition: no, pH 4.7
  Days without aggregation: 0 days
[3]; cetrorelix 7.5 mg/ml, gluconic acid addition: no, pH 4.8
  Days without aggregation: 0 days
[3]; cetrorelix 7.5 mg/ml, gluconic acid addition: yes, pH 3.4
  Days without aggregation: 1 days
[3]; cetrorelix 7.5 mg/ml, gluconic acid addition: yes, pH 3.7
  Days without aggregation: 1 days
[4]; [24]
  RRS, [%] after 1 h: 18% and 11.3%
  RRS, [%] after 6 h: 45.3% and 46%
[1]; in vivo, 1.5 mg/kg
  Cetrorelix content in the muscle (168 h), % of the dose: 37.9 % of the dose
[2]; in vivo, 1.5 mg/kg
  Cetrorelix content in the plasma, % of the dose: 46.9 % of the dose

## cetrorelix glucuronate
[3]; glucuronate salt, cetrorelix 2.5 mg/ml, glucuronic acid addition: no, pH 4.5
  Days without aggregation: 3 days
[3]; glucuronate salt, cetrorelix 2.5 mg/ml, glucuronic acid addition: yes, pH 2.9
  Days without aggregation: >30 days
[3]; glucuronate salt, cetrorelix 5 mg/ml, glucuronic acid addition: no, pH 4.6
  Days without aggregation: 0 days
[3]; glucuronate salt, cetrorelix 5 mg/ml, glucuronic acid addition: yes, pH 2.7
  Days without aggregation: >30 days
[1]; in vivo, 1.5 mg/kg
  Cetrorelix content in the muscle (168 h), % of the dose: 16.5 % of the dose
[1]; in vivo, 3 mg/kg
  Cetrorelix content in the muscle (168 h), % of the dose: 18.8 % of the dose
[2]; in vivo, 1.5 mg/kg
  Cetrorelix content in the plasma, % of the dose: 78.6 % of the dose
